The results in this text go back to the METLIN SMRT retention time set (Domingo-Almenara et al. 2019).

The nature of this series: gradient 5% acetonitrile 3 min, to 50% in 2 min, to 85% in 15 min, held 3 min, 100 µL/min. As to conditions: column: Zorbax Extend-C18 2.1 x 50 mm; eluents: water / acetonitrile, 0.1% formic acid. A digest of the protocol: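 Retention times of pure standards were taken from adduct peaks that were selected by computer and manually inspected. Over 3 months, mixtures of ~100 molecules were run by HPLC–quadrupole time-of-flight mass spectrometry in positive and negative ionization mode. The Zorbax Extend-C18 column (2.1 × 50 mm, 1.8 μm) ran at 100 μL/min in water and acetonitrile, each containing 0.1% formic acid, with 40 μL dead volume and 900 μL dwell volume.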
As to `O=C(CCc1c(-c2cccc(Cl)c2)nc2ccccn12)N1CCN(c2ccccc2)CC1`, the RP-LC retention time is 718 s. Next, `CC(=O)Nc1ccc(-n2c(-c3ccc(Cl)cc3)cn3c4c(=O)n(C)c(=O)n(C)c4nc23)cc1`: 766 s; `Cc1ccc(NC(=O)NCCn2c(-c3ccncc3)nc3cccnc32)c(C)c1`: 641 s. As for `O=C(NCc1ccccc1Cl)c1nnc(-c2ccc(S(=O)(=O)N3CCCC3)cc2)o1`, the figure is 934 s. As for `O=S(=O)(c1ccc(-c2nnc(C3CC3)o2)o1)N1CCN(c2ccc(F)cc2)CC1`, the figure is 981 s; as for `Brc1ccccc1Cc1nc(-c2ccc3nncn3c2)no1`, 724 s. `O=C(Nc1nccs1)C1CCN(c2nc(-c3ccc(Cl)cc3)no2)CC1` gave an RP-LC retention time of 976 s. As for `O=C(Cn1ncc2c(N3CCN(c4ccccn4)CC3)ncnc21)Nc1ccccc1C(F)(F)F`, the figure is 610 s; as for `NC(=O)C1CCN(Cc2nc(Cn3ccn4nc(-c5ccccc5)cc4c3=O)no2)CC1`, 618 s; as for `Cc1cc2c(cc1S(=O)(=O)N1CCCC1C(=O)NCc1ccccc1Cl)OC(C)C(=O)N2` (stereo not drawn), 812 s. As for `CC1(C(=O)NC2CCCCCCC2)CN(S(C)(=O)=O)CC(=O)N1c1cccc(Cl)c1` (stereo not drawn), the figure is 963 s; as for `CCc1nc2nc3c(cn2n1)C(=O)CC(C)(C)C3`, 693 s; as for `CCC(=O)N1CCc2cc(N3CC(C(=O)NC(C)C)CC3=O)ccc21` (stereo not drawn), 647 s. Compound `CC(C)Cn1cc(CCNC(=O)Nc2ccc(Cl)cc2)c2cccnc21` showed an RP-LC retention time of 889 s. As for `COc1ccc(N2CCN(C(=O)C3CCN(c4cnc5nccnc5c4)CC3)CC2)cc1`, the figure is 634 s. For `O=C1NCCN2CC3(CCN(C(=O)Nc4ccccc4F)CC3)CC12` (stereo not drawn), the RP-LC retention time was 564 s. As for `O=C(c1ccc(-c2cncnc2)nc1)N1CCN(c2ccc(Cl)cc2)CC1`, the figure is 796 s. As for `Cn1cc(C(=O)NCc2nc(-c3ccccc3)no2)nn1`, the figure is 661 s. `COc1ccc(-c2cn3c(CC(=O)Nc4cccc(C#N)c4)csc3n2)cc1OC` displayed an RP-LC retention time of 704 s. As for `COc1cccc(-c2noc(Cn3ccn(-c4cc(C)ccc4C)c(=O)c3=O)n2)c1`, the figure is 911 s; as for `Cc1nc(-c2cn(C(C)C)c3ncccc23)sc1C(=O)NCc1ccco1`, 912 s; as for `Cc1ccc(CN2CC(=O)N(c3cccc(Cl)c3)[C@@H]3CS(=O)(=O)C[C@@H]32)cc1`, 917 s. `CN(C)CCNc1oc(-c2ccc(COc3ccc(Cl)cc3)o2)nc1C#N` had an RP-LC retention time of 988 s. As for `Cc1oc(-c2[nH]ncc2C(=O)N2CCOCC2)cc1S(=O)(=O)N1CCOCC1`, the figure is 595 s.

Compound `O=C(NCc1cccc(Br)c1)C(=O)c1ccc[nH]1` yielded an RP-LC retention time of 874 s. The compound `CCC1CN(C(=O)Nc2ccc(OC)cc2)c2ccccc2O1` (stereo not drawn) returned an RP-LC retention time of 968 s. `CN1CC2(CCCC2)N(C(=O)COc2ccc(F)cc2)CC1=O` came in with an RP-LC retention time of 740 s. `CC(=O)NCC1(O)CCCC(C)C1` (stereo not drawn) displayed an RP-LC retention time of 663 s. Next, `COC(=O)C1=CN(c2cccc(OC)c2)c2cc(Br)ccc2S1(=O)=O`: 942 s; `Cc1ccc(CNC(=O)C2(C)Cn3cnc(C(=O)NCc4cccc(C)c4)c3C(=O)N2C2CC2)cc1` (stereo not drawn): 813 s; `CCC(C(=O)NCc1ccco1)n1c2ccccc2c2cnn(C)c(=O)c21` (stereo not drawn): 777 s. As for `CC(=O)N1CCc2cc(-c3ccc(C(=O)NCc4ccc5c(c4)OCO5)cc3)ccc21`, the figure is 824 s; as for `Cc1cc(C)n(CCNC(=O)NC(c2ccccc2)c2ccccc2)n1`, 716 s. Next, `Cc1ccc(Cl)cc1N1CCN(C(=O)Cn2nc(C(=O)N3CCCC3)c3ccccc32)CC1`: 1010 s. As for `CCn1ccc(C(=O)N2CCC(n3c(C)cnc3C3CCC3)C2)n1` (stereo not drawn), the RP-LC retention time turned out to be 576 s. As for `Cc1nc2c(sc3nc(-c4ccccc4)ccc32)c(=O)n1CC(=O)Nc1cc(F)cc(F)c1`, the figure is 1270 s; as for `O=C(CCn1c(=O)sc2ccccc21)Nc1nc(-c2ccc(Br)cc2)cs1`, 1120 s; as for `Cc1ccc(C(=O)NCCc2cn(C)c3ncccc23)cc1F`, 720 s. In turn, `COc1cc(NC(=O)CC2=C3CCCCC3NC2=O)cc(OC)c1` (stereo not drawn) showed an RP-LC retention time of 706 s. As for `CS(=O)(=O)c1ccc2nc(NC(=O)C3COCC(=O)N3Cc3ccccc3)sc2c1` (stereo not drawn), the figure is 649 s; as for `Cc1ccc(CS(=O)(=O)N2CCc3nc(-c4ccc(F)cc4)ncc3C2)cc1`, 1110 s. `O=S(=O)(c1ccc2c(c1)OCCO2)N1CCC[C@H]1c1nc(-c2ccc(F)cc2)n[nH]1` gave an RP-LC retention time of 799 s. Next, `Cc1c(-c2nsc(Nc3ccccc3)n2)nnn1-c1cccc(Cl)c1`: 1070 s; `CC(=O)Nc1nnc(SCc2nnc(-c3ccccc3C)o2)s1`: 740 s. For `COc1ccc(-c2nc(N(CC(C)C)CC(C)C)c3ccccc3n2)cc1`, the RP-LC retention time turned out to be 1020 s. Next, `CC(C)n1c(N2CCN(C(=O)c3ccc(Br)o3)CC2)cc(=O)n(C(C)C)c1=O`: 870 s; `CCOC(=O)COC(=O)c1cn(-c2ccc(CC)cc2)c(=O)c2ccccc12`: 737 s; `COc1cc(Cl)c(NS(=O)(=O)c2c(C)sc(C)c2-c2cc(C(F)(F)F)on2)c(OC)c1`: 1190 s. As for `Cc1cccc(C2CCCN2C(=O)c2cnn3cc(Br)cnc23)c1` (stereo not drawn), the figure is 869 s; as for `O=C(Nc1ccc(Cl)cc1)N1CCCC(c2nnc(Cc3ccc(F)cc3)o2)C1` (stereo not drawn), 877 s. Next, `Cc1ccc(S(=O)(=O)Nc2ccc(C3(C(=O)NCC4CCCO4)CC3)cc2)cc1` (stereo not drawn): 824 s; `COC(=O)c1ccc2c(=O)n(-c3ccccc3)c(N3CCN(c4ccccn4)CC3)nc2c1`: 684 s. `Cc1cc(Cl)ccc1NC(=O)c1ncn2c1C(=O)N(C1CC1)C(C)(C(=O)NC1CCCC1)C2` (stereo not drawn) returned an RP-LC retention time of 879 s. Turning to `Cc1nc(-c2csc(S(=O)(=O)N3CCC(C(=O)NCc4ccc(F)cc4)CC3)c2)no1`, the RP-LC retention time is 981 s. In turn, `Cc1ccc(S(=O)(=O)N2CCC3(CC2)NCCN=C3NCc2ccccc2F)c(C)c1` showed an RP-LC retention time of 747 s.

`Cc1nnc(-c2ccc3ccn(CC(=O)NCc4ccc(N(C)C)cc4)c3c2)o1` had an RP-LC retention time of 632 s. Compound `O=C(Cn1c(C(F)(F)F)nc2cc3c(cc21)OCCO3)NCc1ccccc1` registered an RP-LC retention time of 829 s. `CN1C(=O)C(C)(C(=O)Nc2ccccc2F)Oc2cccnc21` (stereo not drawn) gave an RP-LC retention time of 780 s. Compound `CCOc1ccc(Nc2c(-c3ccc(SC)cc3)nc3cnccn23)cc1` showed an RP-LC retention time of 994 s. `CC(=O)N1CCC(c2nc(-c3ccc(CNC(=O)C4CC4)s3)no2)CC1`: the RP-LC retention time was determined as 661 s.

`CNC(=O)c1noc([C@@H]2CC(F)(F)CN2C(=O)C2CC=CC2)n1` yielded an RP-LC retention time of 698 s. As for `O=C(NCCc1ccccc1)C1CN(S(=O)(=O)c2cccnc2)CC12CCCCC2` (stereo not drawn), the figure is 895 s; as for `COc1ccc(-c2cc3c4nnc(SCC(=O)Nc5cccc(Cl)c5)n4ccn3n2)cc1`, 911 s. As for `CCn1cnc(S(=O)(=O)N2CCC(C(=O)Nc3cccc4ccccc34)CC2)c1`, the figure is 732 s; as for `O=C(NCc1ccc(Cl)cc1)C1CCc2nc(N3CCOCC3)ncc2C1` (stereo not drawn), 704 s; as for `CCN(CC)C(=O)C1c2cc(OC)c(OC)cc2C(=O)N(C)C1c1ccc(OC)c(OC)c1` (stereo not drawn), 706 s.

For `CS(=O)(=O)N1CC[C@H]2CN(C(=O)c3ccc4ncccc4c3)C[C@@]2(CF)C1`, the RP-LC retention time worked out at 607 s. Regarding `CC(C)n1cc(C2=CCN(S(=O)(=O)Cc3cccc(Cl)c3)CC2)c2cccnc21`, the RP-LC retention time stood at 1130 s. Consider `CC(=O)N1CCc2cc(CNS(=O)(=O)c3ccccc3)ccc21`, for which the RP-LC retention time was 691 s. On to `O=C(NCc1ccccc1)C1Cc2ccccc2CN1S(=O)(=O)c1ccccc1` (stereo not drawn), for which the RP-LC retention time is 981 s. `O=C(CSc1nnc(CCc2nc3ccccc3[nH]2)o1)Nc1nccs1` gave an RP-LC retention time of 556 s.

For the compound `COc1ccc(Cn2cc(S(=O)(=O)N3CCCCCC3)ccc2=O)cc1`, the RP-LC retention time was 818 s. As for `O=C(CCCOc1ccc(Cl)cc1Cl)Nc1nc(-c2ccccc2)cs1`, the figure is 1210 s; as for `COc1cccc(CNC(=O)c2ccc3c(c2)nc2n3CCN(Cc3ccccc3)C2=O)c1`, 777 s; as for `NC(=O)c1cc(=O)[nH]c2ccccc12`, 546 s. In turn, `CC(NC(=O)c1ccco1)c1nc(-c2ccc(-c3csc(-c4ccccc4)n3)cc2)no1` (stereo not drawn) registered an RP-LC retention time of 1200 s. Regarding `Cn1c(=O)c(N2CCC(NC(=O)Nc3ccccc3)CC2)nc2ccccc21`, the RP-LC retention time came to 829 s. Next, `Cc1cc(C(=O)N2c3ccccc3CC2c2nnc(C3CC3)o2)nn1C` (stereo not drawn): 786 s.
